“Also recorded” adds a separate entry of the source.
What was measured:
Format in all cases: in vivo, New Zealand rabbit
[1] = tested on: cataract induced left eye; experiment: Macroscopic examination, cataract induced left eye (cinnamic acid derivatives, Tables 10-11); settings: for No Abnormality Detected, incidence: animals affected/6
Description: (§1) An illustrative ophthalmic formulation for treatment of eye disease is set forth below: The formulations provided herein below are tested in cataract induced New Zealand rabbits, and the results are discussed herein below.
(§2) Cataract was induced by injecting 0.5% Methyl Cellulose, which is replaced by aqueous humor in the rabbit eye (i.e., 0.2 mL of Aqueous humor was withdrawn and the same 0.2 mL of 0.5% Methyl cellulose was injected as a replacement). Cataract was observed within 3-4 days of 0.5% Methyl cellulose replacement. Cataract induction was performed to left eye and right eye was served as a control.
(§3) Rabbits were observed by ophthalmoscope and slit lamp once in three days for cataract confirmation. Intraocular pressure was measured with a tonometer once in three days for the confirmation of glaucoma.

[2] = tested on: cataract induced left eye: lens; experiment: Microscopic observations (histopathology) of lens (Table 12)
Description: as §1, §2
(§4) All surviving animals were euthanized on Day 29 by overdose of Thiopental Sodium. Before scheduled euthanasia, the animals were fasted overnight (water allowed) and terminal body weights were recorded. Animals were subjected to detailed macroscopic observation during necropsy. Both right (untreated/uninduced) and left (treated/induced) eyes were collected and cornea and lens were separated, preserved in Davidson fluid. Cornea and lens selected for histopathological evaluation were processed, embedded and sections were cut at 3-5 μm thickness, Sections were placed on grease-free slides and stained with Hematoxylin and Eosin. A 5-step grading system of minimum, mild, moderate, marked and severe will be used to rank microscopic findings for comparison among groups. Data was compiled based on incidences and severity of changes.

[3] = tested on: intraocular pressure, induced left eye; experiment: Intraocular pressure, tonometer (Table 13); parameters: unit not given beside the values; settings: left eye induced/treated
Description: as §2, §3
(§5) Intra-ocular pressures were measured in animals in each group once in three days using a Tonometer. The readings were documented for each eye separately.

[4] = tested on: cataract induced left eye; experiment: Macroscopic examination, cataract induced left eye (Tables 14-15)
Description: as §1, §2, §3

[5] = tested on: cataract induced left eye: lens and cornea; experiment: Microscopic examination (histopathology) of lens and cornea (Table 16)
Description: as §1, §2, §4

[6] = tested on: intraocular pressure, glaucoma-induced left eye; experiment: Intraocular pressure, tonometer (Table 17); settings: for Intraocular pressure, Mean, Left eye: Left (induced) eye; for Intraocular pressure, Mean, Left eye / Intraocular pressure, Mean, Right eye: male, 6 animals/group
Description: as §2, §3, §5

[7] = tested on: cataract and intraocular pressure/glaucoma in induced rabbit eye; experiment: Overall efficacy in cataract reduction and reducing intraocular pressure
Description: as §1
(§6) The following preclinical studies were conducted in rabbit model to test the efficacy of various active ingredients.
as §2, §3

[8] = tested on: cataract induced New Zealand rabbits (left eye); experiment: Macroscopic observations, cataract induced left eye (study of rosmarinic acid formulations, Tables 2-3); settings: ocular 100 μL/rabbit, 28 days, F1 0.25%, F2 0.5%, F3 1.0% rosmarinic acid each with N-acetyl carnosine, F4 0.5% without
Description: as §1, §6, §2, §3
Test Item formulations were administered through ocular route. Ocular route has been chosen as it is the intended therapeutic route of administration in humans.
All test formulations provided as above were administered topically as a therapeutic treatment. A total of 100 μL/Rabbit of placebo or Rosmarinic acid formulations (F1, F2, F3 and F4) were instilled in the 50 μL/eye (left) in two divided doses for 28 days […]

[9] = tested on: cataract induced left eye: lens and cornea; experiment: Microscopic observations (histopathology) of lens and cornea (Tables 4-8); settings: 0.5% rosmarinic acid, Table 8, G5 group
Description: as §1, §2
(§7) All test formulations provided as above were administered topically as a therapeutic treatment. A total of 100 μL/Rabbit of placebo or Rosmarinic acid formulations (F1, F2, F3 and F4) were instilled in the 50 μL/eye (left) in two divided doses for 28 days
as §4

[10] = tested on: intraocular pressure, glaucoma-induced left eye; experiment: Intraocular pressure, tonometer (Table 9); settings: 0.5%, Table 9 G5 group
Description: as §2, §3, §7

[11] = left eye (cataract induced), macroscopic
[12] = left eye (cataract induced), lens
[13] = left eye (cataract induced), lens, number of animals
[14] = second study, 0.5% rosmarinic acid (G2), 0.25% caffeic acid (G6)

O=C(O)/C=C/c1ccc(O)c(O)c1 [Caffeic acid]
Opacity, cornea and red discoloured, with diffuse opacity: Moderate, incidence [1, 11]: 1/6
Opacity, cornea, diffuse: Mild, incidence [1, 11]: 1/6
Opacity, cornea, diffuse: Minimal, incidence [1, 11]: 1/6
Opacity, cornea, diffuse: Moderate, incidence [1, 11]: 1/6
No Abnormality Detected, incidence [1, 11]: 1/6
histopathological findings, lens (in words) ([2]; Table 12, G2 0.5% rosmarinic acid, G6 0.25% caffeic acid): a higher incidence of lenticular degeneration
Within Normal Histological Limits, incidence ([2]; left eye (cataract induced)): 0/6
Epithelial proliferation, incidence [2, 12]: 3/6
Epithelial proliferation: Absent, incidence [2, 12]: 3/6
Lenticular Degeneration, incidence [2, 12]: 6/6
Liquefaction, incidence [2, 12]: 4/6
Liquefaction: Absent, incidence [2, 12]: 2/6
Epithelial proliferation: Mild, incidence [2, 13]: 1
Epithelial proliferation: Minimal, incidence [2, 13]: 1
Epithelial proliferation: Moderate, incidence [2, 13]: 1
Liquefaction: Mild, incidence [2, 13]: 1
Liquefaction: Minimal, incidence [2, 13]: 2
Liquefaction: Moderate, incidence [2, 13]: 1
Intraocular Pressure, mean ([3]; Day 3): 90.35
Intraocular Pressure, mean ([3]; Day 6): 63.22
Intraocular Pressure, mean ([3]; Day 9): 62.17
Intraocular Pressure, mean ([3]; Day 12): 65.93
Intraocular Pressure, mean ([3]; Day 15): 45.45
Intraocular Pressure, mean ([3]; Day 18): 45.73
Intraocular Pressure, mean ([3]; Day 21): 41.50
Intraocular Pressure, mean ([3]; Day 24): 38.93
Intraocular Pressure, mean ([3]; Day 27): 32.12
Intraocular Pressure, mean ([3]; Day 30): 30.78
Intraocular Pressure, mean ([3]; Day 33): 26.60↓↓
cataract efficacy, macroscopic (in words) ([4]; Table 15): all 6 animals were completely recovered, and no cataract was observed at all
No Abnormality Detected, incidence [4, 11]: 6/6
cataract efficacy, histopathology (in words) ([5]; Table 16): fully regenerated in 5 out of 6 animals, from severe degeneration to a minimal scale; also recorded: One animal exhibited complete recovery
Lens, Liquefaction: Minimal, incidence ([5]; left eye induced): 5/6
No abnormality (histopathology), incidence ([5]; left eye induced): 1/6
Intraocular pressure, Mean, Left eye ([6]; Day 3): 41.50 mmHg
Intraocular pressure, Mean, Left eye ([6]; Day 6): 23.89 mmHg
Intraocular pressure, Mean, Left eye ([6]; Day 9): 21.61 mmHg
Intraocular pressure, Mean, Left eye ([6]; Day 12): 25.33 mmHg
Intraocular pressure, Mean, Left eye ([6]; Day 15): 25.11 mmHg
Intraocular pressure, Mean, Left eye ([6]; Day 18): 29.56 mmHg
Intraocular pressure, Mean, Left eye ([6]; Day 21): 29.94 mmHg
Intraocular pressure, Mean, Left eye ([6]; Day 25): 24.78 mmHg
Intraocular pressure, Mean, Left eye ([6]; Day 28, ↓↓ = Significantly low at P ≤ 0.01 compared to respective control): 21.11↓↓ mmHg
Intraocular pressure, Mean, Right eye ([6]; Day 3): 15.83 mmHg
Intraocular pressure, Mean, Right eye ([6]; Day 6): 19.11 mmHg
Intraocular pressure, Mean, Right eye ([6]; Day 9): 16.61 mmHg
Intraocular pressure, Mean, Right eye ([6]; Day 12): 16.94 mmHg
Intraocular pressure, Mean, Right eye ([6]; Day 15): 14.61 mmHg
Intraocular pressure, Mean, Right eye ([6]; Day 18): 15.44 mmHg
Intraocular pressure, Mean, Right eye ([6]; Day 21): 15.28 mmHg
Intraocular pressure, Mean, Right eye ([6]; Day 25): 17.17 mmHg
Intraocular pressure, Mean, Right eye ([6]; Day 28): 17.11 mmHg
intraocular pressure following treatment ([6]; induced left eye, 28-day treatment regimen, 0.5%): 21.11 mmHg
mean intraocular pressure initially measured ([6]; induced left eye, six animals, within three days): 41.5 mmHg
overall efficacy (in words) [7, 14]: showed promise
overall efficacy (in words) ([7]; second study, 0.5% rosmarinic acid (G2), 0.25% caffeic acid (G6), listed as caffeic acid): shown to be the best
overall efficacy / order of efficacy (in words) ([7]; third study, cataract reduction and reducing intraocular pressure, highest to lowest): showed the best results, with remarkable efficacy not only in cataract reduction but also in addressing glaucoma; also recorded: Caffeic Acid G3>Epigallocatechin Gallate G4>Encapsulated Feruloyl Tyramine G5>Ferulic Acid G6>Rosmarinic Acid+Caffeic Acid G2

O=C(/C=C/c1ccc(O)c(O)c1)O[C@H](Cc1ccc(O)c(O)c1)C(=O)O [Rosmarinic acid]
Macroscopic inference (Left Eye) [8]: no abnormalities found in all the 6 animals
corneal edema (in words) [9]: five animals' corneal edema was within histological limits and one animal with minimal corneal edema
epithelial proliferation in lens (in words) [9]: In five animals' epithelial proliferation in lens was within histological limits; also recorded: Only one animal displayed minimal epithelial proliferation
liquefaction in the lens (in words) [9]: in four animals, liquefaction in the lens is within histological limits; also recorded: in two animals, minimal liquefaction was observed
intraocular pressure following treatment ([10]; 28-day treatment regimen): 20.06 mmHg
intraocular pressure initially measured ([10]; within six days): 59.72 mmHg
macroscopic examination (in words) ([1]; Table 11, G2 0.5% rosmarinic acid, G6 0.25% caffeic acid): minimal corneal opacity in some animals, with no abnormalities in one
Opacity, cornea and red discoloured, with diffuse opacity: Minimal, incidence [1, 11]: 1/6
Opacity, cornea, diffuse: Mild, incidence [1, 11]: 1/6
Opacity, cornea, diffuse: Minimal, incidence [1, 11]: 3/6
No Abnormality Detected, incidence [1, 11]: 1/6
Within Normal Histological Limits, incidence ([2]; left eye (cataract induced)): 0/6
Epithelial proliferation, incidence [2, 12]: 2/6
Epithelial proliferation: Absent, incidence [2, 12]: 4/6
Lenticular Degeneration, incidence [2, 12]: 4/6
Liquefaction, incidence [2, 12]: 4/6
Liquefaction: Absent, incidence [2, 12]: 2/6
Epithelial proliferation: Marked, incidence [2, 13]: 1
Epithelial proliferation: Minimal, incidence [2, 13]: 1
Liquefaction: Marked, incidence [2, 13]: 1
Liquefaction: Minimal, incidence [2, 13]: 3
Intraocular Pressure, mean ([3]; Day 3): 83.15
Intraocular Pressure, mean ([3]; Day 6): 77.55
Intraocular Pressure, mean ([3]; Day 9): 78.72
Intraocular Pressure, mean ([3]; Day 12): 66.83
Intraocular Pressure, mean ([3]; Day 15): 48.83
Intraocular Pressure, mean ([3]; Day 18): 48.48
Intraocular Pressure, mean ([3]; Day 21): 46.77
Intraocular Pressure, mean ([3]; Day 24): 44.55
Intraocular Pressure, mean ([3]; Day 27): 42.62
Intraocular Pressure, mean ([3]; Day 30): 23.27
Intraocular Pressure, mean ([3]; Day 33): 18.45↓↓
overall efficacy (in words) ([7]; 0.5% rosmarinic acid, G5 of first study): demonstrates its efficacy not only in preventing lens liquefaction, epithelial proliferation, and corneal edema and treating cataract but also in reducing intraocular pressure
overall efficacy (in words) [7, 14]: shown to be the best; also recorded: superior efficacy
